Where two headings read alike, the source gives them in different places.
Tests used:
H1 receptor = target: T1, H1 receptor (Cavia porcellus, UniProt P31389); assay: H1 receptor binding inhibition test ([^3 H]mepyramin, guinea pig cerebromembranous protein); details: for Kd: read-out: H1 receptor, dissociation constant KD; for inhibition at 100 µM: a: 100 μM; for inhibition at 100 µM / inhibition at 10 µM: read-out: H1 receptor (%), inhibition rate; for inhibition at 10 µM: b: 10 μM
T1 construct: guinea pig cerebromembranous protein; from tissue; host or cells: guinea pig cerebral (brain) membranes
Description: 1) H1 Receptor Binding Inhibition Test
An ice-cooled phosphate buffer was added to terminate the reaction, followed by immediate filtration through a Wattman CF/C filter. The filter was washed twice with 20 ml aliquots of the ice-cooled buffer. The radioactivity of the residue was measured by a liquid scintillation counter. From a measurement value obtained without the addition of the test compound and measurements values obtained upon addition of the test compound at various concentrations, the dose-response of the inhibitory action of the test compound was measured and the 50% inhibitory concentration (IC50) was determined. Using the Cheng-Prusoff formula, a dissociation constant was calculated from the IC50. In a binding assay, 10^-4 M R(-)dimethindene was used for the measurement of a nonspecific binding.

LTD4 receptor = target: T2, LTD4 receptor (Cavia porcellus, UniProt Q2NNR5); assay: LTD4 receptor binding inhibition test ([^3 H]leukotriene D4, guinea pig pulmomembranous protein); details: for inhibition at 10 µM: b: 10 μM; for inhibition at 10 µM / inhibition at 100 µM: read-out: LTD4 receptor (%), inhibition rate; for Kd: read-out: LTD4 receptor, dissociation constant KD; for inhibition at 100 µM: a: 100 μM
T2 construct: guinea pig pulmomembranous protein; from tissue; host or cells: guinea pig lung membranes
T2 sequence (Q2NNR5 1-340): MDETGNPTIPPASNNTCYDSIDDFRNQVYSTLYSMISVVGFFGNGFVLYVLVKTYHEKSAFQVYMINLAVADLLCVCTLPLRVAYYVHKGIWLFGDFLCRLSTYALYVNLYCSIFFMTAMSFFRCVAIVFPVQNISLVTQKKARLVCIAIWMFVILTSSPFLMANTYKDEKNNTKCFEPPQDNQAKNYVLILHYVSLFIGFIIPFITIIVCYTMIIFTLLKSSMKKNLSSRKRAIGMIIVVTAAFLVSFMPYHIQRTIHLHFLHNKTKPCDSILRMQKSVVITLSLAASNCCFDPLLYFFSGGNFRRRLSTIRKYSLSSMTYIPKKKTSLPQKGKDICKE
Description: 2) LTD4 Receptor Binding Inhibition Test
An ice-cooled tris hydrochloride/sodium chloride buffer (10 mM/100 mM, pH 7.5) was added to terminate the reaction, followed by immediate filtration through a Wattman CF/C filter. The filter was washed twice with 20 ml aliguots of the ice-cooled buffer. The radioactivity of the residue was measured by a liquid scintillation counter. […] In a binding assay, 2 μM leukotriene D4 was used for the measurement of a nonspecific binding.

T1 sequence (P31389 whole entry): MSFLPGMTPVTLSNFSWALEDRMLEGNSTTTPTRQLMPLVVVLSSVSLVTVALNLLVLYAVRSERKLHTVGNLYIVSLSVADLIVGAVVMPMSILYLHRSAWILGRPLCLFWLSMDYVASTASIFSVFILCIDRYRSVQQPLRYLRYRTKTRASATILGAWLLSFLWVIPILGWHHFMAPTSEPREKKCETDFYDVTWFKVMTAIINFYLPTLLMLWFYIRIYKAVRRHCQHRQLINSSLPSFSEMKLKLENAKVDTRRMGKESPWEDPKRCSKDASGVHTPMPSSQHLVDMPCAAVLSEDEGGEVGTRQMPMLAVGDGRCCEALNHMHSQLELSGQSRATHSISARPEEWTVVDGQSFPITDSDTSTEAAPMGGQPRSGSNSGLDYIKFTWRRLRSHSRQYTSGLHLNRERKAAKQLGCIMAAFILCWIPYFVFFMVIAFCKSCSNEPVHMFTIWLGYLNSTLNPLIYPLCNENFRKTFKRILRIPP

Kd (LTD4 receptor) [nM] | inhibition at 100 µM (H1 receptor) [%] | further results | Compound
– | – | Kd (H1 receptor): 83600 nM; inhibition at 10 µM (LTD4 receptor): 17% | O=C1CCc2ccc(OCc3ccc(OCc4nc5ccccc5s4)cc3)cc2N1 [Example 42, 7-(4-(2-benzothiazolylmethoxy)benzyloxy]-1,2,3,4-tetrahydroquinolin-2-one]
5510 | – | Kd (H1 receptor): 6060 nM | CCOCCn1c(COc2cccc(COc3ccc(C)c4c3C(C)(C)C(=O)N4)c2)nc2ccccc21 [Example 43, 4-(3-(N-ethoxylethylbenzimidazol-2-yl-methoxy)benzyloxy)-3,3,7-trimethyl-2,3-dihydro-1H-indol-2-one]
6300 | – | Kd (H1 receptor): 8670 nM | CCOCCn1c(COc2cccc(COc3ccc4c(c3)SCC(=O)N4)c2)nc2ccccc21 [Example 44, 7-[3-(N-ethoxylethylbenzimidazol-2-yl-methoxy)benzyloxy]-3,4-dihydro-2H-1,4-benzothiazin-3-one]
– | 40 | inhibition at 10 µM (LTD4 receptor): 32% | CCOCCn1c(COc2ccc(COc3ccc(C)c4c3C(C)(C)C(=O)N4)cc2)nc2ccccc21 [Example 45, 4-[4-(N-ethoxylethylbenzimidazol-2-yl-methoxy)benzyloxy]-3,3,7-trimethyl-2,3-dihydro-1H-indol-2-one]
– | – | Kd (H1 receptor; 0.5 nM [^3 H]mepyramin, pH 7.5, 37° C., 30 minutes, calculated from IC50 with Cheng-Prusoff formula): 5950 nM; Kd (LTD4 receptor; 0.2 nM [^3 H]leukotriene D4, pH 7.5, 22° C., 30 minutes, calculated from IC50): 6400 nM | CCOCCn1c(COc2ccc(COc3ccc4c(c3)SCC(=O)N4)cc2)nc2ccccc21 [Example 46, 7-[(N-ethoxyethylbenzimidazol-2-yl-methoxy)benzyloxy]-3,4-dihydro-2H-1,4-benzothiazin-3-one]
16 | 38 | – | Cc1ccc(OC(=O)c2cccc(OCc3ccc4ccccc4n3)c2)c2cc(C#N)c(=O)[nH]c12 [Example 53, 3-cyano-8-methyl-5-[3-(2-quinolinylmethoxy)benzoyloxy]-1,2-dihydroquinolin-2-one]
129 | 41 | – | Cc1ccc(OC(=O)c2cccc(OCc3ccc4ccccc4n3)c2)c2c1NC(=O)CC2 [Example 54, 8-Methyl-5-[3-(2-quinolinylmethoxy)benzoyloxy]-1,2,3,4-tetrahydroquinolin-2-one]
348 | 43 | – | O=C1CCc2cc(OC(=O)c3cccc(OCc4ccc5ccccc5n4)c3)ccc2N1 [Example 55, 6-[3-(2-Quinolinylmethoxy)benzoyloxy]-1,2,3,4-tetrahydroquinolin-2-one]
– | – | Kd (H1 receptor): 93000 nM; inhibition at 100 µM (LTD4 receptor): 12% | O=C1CCc2ccc(OC(=O)c3cccc(OCc4ccc5ccccc5n4)c3)cc2N1 [Example 56, 7-[3-(2-Quinolinylmethoxy)benzoyloxy]-1,2,3,4-tetrahydroquinolin-2-one]
– | – | Kd (H1 receptor): 57900 nM; Ki (LTD4 receptor; read-out: LTD4 receptor, dissociation constant KD (converted)): 851 nM | O=C1CCCc2cc(OC(=O)c3cccc(OCc4ccc5ccccc5n4)c3)ccc2N1 [Example 57]
– | 37 | inhibition at 100 µM (LTD4 receptor): 53% | CC1(C)C(=O)Nc2ccc(OC(=O)c3cccc(OCc4ccc5ccccc5n4)c3)cc21 [Example 59, 3,3-Dimethyl-5-[3-(2-quinolinylmethoxy)benzoyloxy]-2,3-dihydro-1H-indol-2-one]
223 | 38 | – | CC1(C)C(=O)Nc2cc(OC(=O)c3cccc(OCc4ccc5ccccc5n4)c3)ccc21 [Example 60, 3,3-Dimethyl-6-[3-(2-quinolinylmethoxy)benzoyloxy]-2,3-dihydro-1H-indol-2-one]
– | 28 | inhibition at 10 µM (LTD4 receptor): 27% | CC1(C)C(=O)Nc2c(OC(=O)c3cccc(OCc4ccc5ccccc5n4)c3)cccc21 [Example 61, 3,3-Dimethyl-7-[3-(2-quinolinylmethoxy)benzoyloxyl]2,3-dihydro-1H-indol-2-one]
30.6 | 40 | – | Cc1ccc(OC(=O)c2ccc(OCc3ccc4ccccc4n3)cc2)c2c1NC(=O)CC2 [Example 63, 8-Methyl-5-(4-(2-quinolinylmethoxy)benzoyloxy]-1,2,3,4-tetrahydroquinolin-2-one]
– | 40 | inhibition at 100 µM (LTD4 receptor): 12% | O=C1CCc2cc(OC(=O)c3ccc(OCc4ccc5ccccc5n4)cc3)ccc2N1 [Example 64, 6-[4-(2-Quinolinylmethoxy)benzoyloxy]-1,2,3,4-tetrahydroquinolin-2-one]
– | 43 | inhibition at 100 µM (LTD4 receptor): 13% | O=C1CCc2ccc(OC(=O)c3ccc(OCc4ccc5ccccc5n4)cc3)cc2N1 [Example 65, 7-(4-(2-Quinolinylmethoxy]benzoyloxy]-1,2,3,4-tetrahydroquinolin-2-one]

Kd (LTD4 receptor) [nM] | inhibition at 100 µM (H1 receptor) [%] | further results | Compound
– | 49 | inhibition at 100 µM (LTD4 receptor): 52% | CC1(C)C(=O)Nc2ccc(OC(=O)c3ccc(OCc4ccc5ccccc5n4)cc3)cc21 [Example 67, 3,3-Dimethyl-5-[4-(2-quinolinylmethoxy)benzoyloxy]-2,3-dihydro-1H-indol-2-one]
428 | 28 | – | CC1(C)C(=O)Nc2cc(OC(=O)c3ccc(OCc4ccc5ccccc5n4)cc3)ccc21 [Example 68, 3,3-Dimethyl-6-(4-(2-quinolinylmethoxy)benzoyloxy]-2,3-dihydro-1H-indol-2-one]
331 | 33 | – | CC1(C)C(=O)Nc2c(OC(=O)c3ccc(OCc4ccc5ccccc5n4)cc3)cccc21 [Example 69, 3,3-Dimethyl-7-(4-(2-quinolinylmethoxy)benzoyloxyy]-2,3-dihydro-1H-indol-2-one]
208 | 37 | – | O=C1CSc2c(cccc2NC(=O)c2cccc(OCc3ccc4ccccc4n3)c2)N1 [Example 70, 8-(3-(2-Quinolinylmethoxy)benzoylamino]-3,4-dihydro-2H-1,4-benzothiazin-3-one]
– | 28 | inhibition at 100 µM (LTD4 receptor): 0% | O=C1CSc2c(cccc2NC(=O)c2ccc(OCc3ccc4ccccc4n3)cc2)N1 [Example 71, 8-[4-(2-Quinolinylmethoxy)benzoylamino]-3,4-dihydro-2H-1,4-benzothiazin-3-one]
– | 36 | LTD4 receptor (%), inhibition rate (LTD4 receptor; concentration not given): 0% | O=C1CS(=O)(=O)c2cc(OCc3cccc(OCc4ccc5ccc(Cl)cc5n4)c3)ccc2N1 [Example 75]
– | – | Kd (H1 receptor): 122000 nM; inhibition at 100 µM (LTD4 receptor): 0% | O=C1CCS(=O)(=O)c2cc(OCc3cccc(OCc4ccc5ccccc5n4)c3)ccc2N1 [Example 76]
– | 43 | inhibition at 10 µM (LTD4 receptor): 42% | Cn1c(COc2cccc(COc3ccc4c(c3)S(=O)(=O)CC(=O)N4)c2)nc2ccccc21 [Example 79, 7-[3-(N-Methylbenzimidazol-2-yl-methoxy)benzyloxy]-3,4-dihydro-2H-1,4-benzothiazin-3-one 1,1-dioxide]
– | 36 | inhibition at 10 µM (LTD4 receptor): 27% | O=C1CS(=O)(=O)c2cc(NC(=O)c3cccc(OCc4ccc5ccccc5n4)c3)ccc2N1 [Example 80]
60 | – | inhibition at 10 µM (H1 receptor): 5% | O=C1CCCc2cc(OCc3cccc(OCc4ncc5ccccc5n4)c3)ccc2N1 [Example 82, 7-[3-(2-quinazolinylmethoxy)benzyloxy]-2,3,4,5-tetrahydro-1H-benz[b]azepin-2-one]
310 | – | inhibition at 10 µM (H1 receptor): 0% | Cn1c(COc2cccc(COc3ccc4c(c3)CCCC(=O)N4)c2)nc2ccccc21 [Example 83]
26 | – | Kd (H1 receptor): 66400 nM | O=C1NCCCc2cc(OCc3cccc(OCc4ccc5ccccc5n4)c3)ccc21 [Example 84, 7-[3-(2-quinolinylmethoxy)benzyloxy]-2,3,4,5-tetrahydro-1H-benz[c]azepin-1-one]
115 | – | Kd (H1 receptor): 53100 nM | O=C1NCCCc2cc(OCc3ccc(OCc4ccc5ccccc5n4)cc3)ccc21 [Example 85, 7-[4-(2-quinolinylmethoxy)benzyloxy]-2,3,4,5-tetrahydro-1H-benz[c]azepin-1-one]
92.8 | – | inhibition at 10 µM (H1 receptor): 9% | O=C1NCCCc2cc(OCc3cccc(OCc4ncc5ccccc5n4)c3)ccc21 [Example 86, 7-[3-(2-quinazolinylmethoxy)benzyloxy]-2,3,4,5-tetrahydro-1H-benz[c]azepin-1-one]
12.9 | – | inhibition at 10 µM (H1 receptor): 8% | O=C1CCCc2cc(OCc3cccc(OCc4ncc5ccccc5n4)c3)ccc21 [Example 90, 6-[3-(2-quinazolinylmethoxy)benzyloxy]-1-tetralone]
– | – | Kd (H1 receptor): 120 nM; inhibition at 10 µM (LTD4 receptor): 37% | O=C1CSc2cc(N=Cc3cccc(OCc4ccc5ccccc5n4)c3)ccc2N1 [Example 91, 7-[3-(2-quinolinylmethoxy)benzylidenamino]-3,4-dihydro-2H-1,4-benzothiazin-3-one]

Source: patent publication US5885987A, “Phenylene derivatives” (Kowa Co., Ltd., priority 1996, dated 1999)
